Consider ten compounds from patent US11667621B2, “Antiestrogen compounds” (STEVENS INSTITUTE OF TECHNOLOGY, priority 2018, dated 2023).

For one test, the target named is T1, CRISPR KI Y537S (Homo sapiens, UniProt P03372, Y537S).
T1 construct: endogenous in cells; host or cells: CRISPR knock-in clones (cl. 4, cl. 24)
T1 sequence (P03372 1-595 Y537S): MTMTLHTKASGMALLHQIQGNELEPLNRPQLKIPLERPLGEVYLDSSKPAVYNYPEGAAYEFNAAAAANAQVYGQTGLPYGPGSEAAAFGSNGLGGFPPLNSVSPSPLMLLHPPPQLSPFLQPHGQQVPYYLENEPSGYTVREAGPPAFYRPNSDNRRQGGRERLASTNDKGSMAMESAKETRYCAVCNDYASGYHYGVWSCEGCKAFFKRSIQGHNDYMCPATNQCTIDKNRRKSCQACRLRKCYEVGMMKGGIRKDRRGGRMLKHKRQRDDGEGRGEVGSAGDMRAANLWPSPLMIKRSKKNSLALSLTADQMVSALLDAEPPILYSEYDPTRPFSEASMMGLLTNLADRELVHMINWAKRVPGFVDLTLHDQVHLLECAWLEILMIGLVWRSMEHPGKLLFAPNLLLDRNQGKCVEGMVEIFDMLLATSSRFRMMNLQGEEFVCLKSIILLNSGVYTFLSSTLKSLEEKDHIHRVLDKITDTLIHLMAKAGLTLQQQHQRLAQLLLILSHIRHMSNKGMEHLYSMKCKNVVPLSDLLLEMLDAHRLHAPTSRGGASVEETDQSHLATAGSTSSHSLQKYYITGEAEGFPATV
Briefly: Luciferase assay, CRISPR KI Y537S clones. It counts as cell-based. Set-up: concentration or dose not given beside the values. The conditions noted are these: for CRISPR KI (% Inhibition) Y537S cl. 4: clone 4; for CRISPR KI (% Inhibition) Y537S cl. 24: clone 24. Here is the method: (§1) Luciferase assays were performed to determine the efficacy of the example compounds at inhibiting ER or its mutants' ability to activate transcription of genes.
(§2) Cells were plated at a density of 0.15×10^6 per well of 24 well plates one day prior to transfection. Cells were transfected with 125 ng (per well) of HA-ERα wild type or mutants, 315 ng (per well) of 3×-ERE-TATA-Luciferase reporter and 50 ng (per well) of pRL-TK Renilla Luciferase plasmid, using Xtremegene (Roche). The cells were treated with the various compounds or Fulvestrant at the indicated doses a day after transfection for 24 hours and luciferase activities were determined using the Dual-Luciferase® Reporter Assay System (Promega) according to manufacturer's instructions. Luciferase bioluminescence measurements were performed with the Veritas™ Microplate Luminometer (Promega). All experiments were conducted in triplicate and the Firefly luciferase activity was normalized with the Renilla luciferase activity of each sample.

The next test concerns MCF7. Briefly: Luciferase assay in MCF7. Set-up: concentration or dose not given beside the values. The format is cell-based. As for the experimental part:
as §1, §2

Test [1] concerns the target T2, full length human estrogen receptor a (Homo sapiens, UniProt P03372).
T2 construct: purified, full-length human estrogen receptor a from Invitrogen; purchased Invitrogen
T2 sequence (P03372 1-595): T1 sequence (P03372 1-595 Y537S) with S537Y
The experiment in a line: Competitive radiometric binding assay (RBA), tritiated estradiol tracer. As to conditions: relative to estradiol = 100; average SD of 2-3 determinations. Here is the method:
Tritiated estradiol was obtained from Perkin Elmer and purified, full-length human estrogen receptor a from Invitrogen.
Competitive radiometric binding assays (RBA) were performed on 96-well microtiter filter plates (Millipore), using full length human estrogen receptor a, with tritiated estradiol as tracer, as previously described (Carlson K E, Choi I, Gee A, Katzenellenbogen B S, Katzenellenbogen J A. Altered ligand binding properties and enhanced stability of a constitutively active estrogen receptor: evidence that an open pocket conformation is required for ligand interaction. Biochemistry 1997, 36(48), 14897-14905). After incubation on ice for 18-24 h, ERα-bound tracer was absorbed onto hydroxyapatite (BioRad), washed with buffer, and measured by scintillation counting. RBA values are the average SD of 2-3 determinations.

Test [2] in a line: Cell proliferation assay (WST-1), 6-day exposure. It counts as cell-based. As to conditions: 144 h, read-out: Antiproliferation IC50. Here is the method: Cell proliferation assay: WST-1 assay (Roche, Basel, Switzerland) was used to quantify cell viability after a 6-day exposure to compounds, as described in Gong et al. Mol. Cell. Endocrinol. 2016, 437, 190-200. Absorbance was measured at 450 nm using a VICTOR X5 PerkinElmer 2030 Multilabel Plate Reader, and cell proliferation values represent signal from compound-treated samples relative to vehicle-treated controls. All assays were performed in triplicate, and the values shown are the average SD of 2-3 independent experiments.
(Tetrazolium assays rely on reduction of a dye to a coloured formazan, in cell work by metabolically active cells.)

Residue numbers refer to the chain shown, from its start.

As to `CC(C)(C)OC(=O)N[C@@H](Cc1c[nH]c2ccccc12)C(=O)NCCCCOc1ccc(C(=C2C3CC4CC(C3)CC2C4)c2ccc(O)cc2)cc1` [Example 1, (S)-tert-Butyl (1-((4-(4-(adamantan-2-ylidene(4-hydroxyphenyl)methyl)-phenoxy)butyl)amino)-3-(1H-indol-3-yl)-1-oxopropan-2-yl)carbamate], at CRISPR KI Y537S, the “CRISPR KI (% Inhibition) Y537S cl. 4” value is recorded as −74% and the “CRISPR KI (% Inhibition) Y537S cl. 24” value is listed as −34%. Also, the “MCF7 (% Inhibition)” value in the test on MCF7 turned out to be 71%. In addition, the “RBA (estradiol = 100)” value in test [1] is on record as 20 ± 6. Moreover, in test [2], the IC50 was found to be 16 nM.

Consider `O=C(NCCCCOc1ccc(C(=C2C3CC4CC(C3)CC2C4)c2ccc(O)cc2)cc1)C12CC3CC(CC(C3)C1)C2` [Example 6, N-(4-(4-(Adamantan-2-ylidene(4-hydroxyphenyl)methyl)phenoxy)-butyl)adamantane-1-carboxamide], for which, on CRISPR KI Y537S, the “CRISPR KI (% Inhibition) Y537S cl. 4” value is on record as −187% and the “CRISPR KI (% Inhibition) Y537S cl. 24” value is given as −108%. In the test with MCF7, the “MCF7 (% Inhibition)” value amounted to 70%. In addition, the “RBA (estradiol = 100)” value in test [1] was 11 ± 3. Besides, the IC50 in test [2] amounted to 13 nM.

For the compound `CC12CC3CC(C)(C1)CC(C(=O)NCCCCOc1ccc(C(=C4C5CC6CC(C5)CC4C6)c4ccc(O)cc4)cc1)(C3)C2` [Example 7, N-(4-(4-(Adamantan-2-ylidene(4-hydroxyphenyl)methyl)phenoxy)butyl)-3,5-dimethyladamantane-1-carboxamide], on CRISPR KI Y537S, the “CRISPR KI (% Inhibition) Y537S cl. 4” value is −70% and the “CRISPR KI (% Inhibition) Y537S cl. 24” value was −64%. In addition, the “MCF7 (% Inhibition)” value in the test with MCF7 is 53%. In addition, in test [1], the “RBA (estradiol = 100)” value was determined as 6.0 ± 0.1. In addition, in test [2], the IC50 was determined as 5 nM.

Consider `O=C(NCCCCOc1ccc(C(=C2C3CC4CC(C3)CC2C4)c2ccc(O)cc2)cc1)C12CC3CC(CC1C3)C2` [Example 8, N-(4-(4-((Adamantan-2-ylidene)(4-hydroxyphenyl)methyl)phenoxy)butyl)-hexahydro-2,5-methanopentalene-3a(1H)-carboxamide], for which, on CRISPR KI Y537S, the “CRISPR KI (% Inhibition) Y537S cl. 4” value is given as −387% and the “CRISPR KI (% Inhibition) Y537S cl. 24” value is given as −249%. Further, the “MCF7 (% Inhibition)” value in the test with MCF7 amounted to 77%. Besides, in test [1], the “RBA (estradiol = 100)” value is 17 ± 2. For the same compound, in test [2], the IC50 stood at 12 nM.

Take `O=C(NCCCCOc1ccc(C(=C2C3CC4CC(C3)CC2C4)c2ccc(O)cc2)cc1)[C@H]1C[C@@H]2C=C[C@H]1C2` [Example 9, (1R, 2S, 4R)—N-(4-(4-(Adamantan-2-ylidene(4-hydroxyphenyl)methyl)phenoxy)-butyl)bicyclo[2.2.1]hept-5-ene-2-carboxamide]: on CRISPR KI Y537S, the “CRISPR KI (% Inhibition) Y537S cl. 4” value is reported as −369% and the “CRISPR KI (% Inhibition) Y537S cl. 24” value is −384%. Also, in the test on MCF7, the “MCF7 (% Inhibition)” value is recorded as 73%. For the same compound, the “RBA (estradiol = 100)” value in test [1] was 37 ± 0.3. Also, the IC50 in test [2] was found to be 9 nM.

On to `O=C(NCCCCOc1ccc(C(=C2C3CC4CC(C3)CC2C4)c2ccc(O)cc2)cc1)C1CCC1` [Example 10, N-(4-(4-(Adamantan-2-ylidene(4-hydroxyphenyl)methyl)phenoxy)butyl)-cyclobutanecarboxamide], for which the “CRISPR KI (% Inhibition) Y537S cl. 24” value on CRISPR KI Y537S is on record as −496%. In the test with MCF7, the “MCF7 (% Inhibition)” value turned out to be 66%. Besides, the “RBA (estradiol = 100)” value in test [1] was determined as 70 ± 1. For the same compound, the IC50 in test [2] is 3 nM.

For `O=C(NCCCCOc1ccc(C(=C2C3CC4CC(C3)CC2C4)c2ccc(O)cc2)cc1)C1CCCCC1` [Example 11, N-(4-(4-(Adamantan-2-ylidene(4-hydroxyphenyl)methyl)phenoxy)butyl)-cyclohexanecarboxamide], on CRISPR KI Y537S, the “CRISPR KI (% Inhibition) Y537S cl. 4” value is reported as −62% and the “CRISPR KI (% Inhibition) Y537S cl. 24” value was −10%. Further, the “MCF7 (% Inhibition)” value with MCF7 was found to be 84%. The “RBA (estradiol = 100)” value in test [1] was determined as 28 ± 6. Moreover, the IC50 in test [2] is 0.6 nM.

In the case of `O=C(NCCCCOc1ccc(C(=C2C3CC4CC(C3)CC2C4)c2ccc(O)cc2)cc1)C1CCCCCC1` [Example 12, N-(4-(4-(Adamantan-2-ylidene(4-hydroxyphenyl)methyl)phenoxy)butyl)-cycloheptanecarboxamide], on CRISPR KI Y537S, the “CRISPR KI (% Inhibition) Y537S cl. 4” value is reported as −232% and the “CRISPR KI (% Inhibition) Y537S cl. 24” value was −199%. In the test with MCF7, the “MCF7 (% Inhibition)” value was 82%. The “RBA (estradiol = 100)” value in test [1] is listed as 30 ± 5. Besides, in test [2], the IC50 came to 5 nM.

`O=C(NCCCCOc1ccc(C(=C2C3CC4CC(C3)CC2C4)c2ccc(O)cc2)cc1)C1CCC(F)(F)CC1` [Example 13, N-(4-(4-(Adamantan-2-ylidene(4-hydroxyphenyl)methyl)phenoxy)butyl)-4,4-difluorocyclohexanecarboxamide]: at CRISPR KI Y537S, the “CRISPR KI (% Inhibition) Y537S cl. 4” value was −334% and the “CRISPR KI (% Inhibition) Y537S cl. 24” value is listed as −327%. In the test with MCF7, the “MCF7 (% Inhibition)” value turned out to be 80%. Further, in test [1], the “RBA (estradiol = 100)” value came out at 30 ± 0.1. Moreover, the IC50 in test [2] worked out at 4 nM.

For `O=C(NCCCCOc1ccc(C(=C2C3CC4CC(C3)CC2C4)c2ccc(O)cc2)cc1)[C@H]1CC[C@H](C(F)(F)F)CC1` [Example 14, (trans)-N-(4-(4-(Adamantan-2-ylidene(4-hydroxyphenyl)methyl)phenoxy)-butyl)-4-(trifluoromethyl)cyclohexanecarboxamide], on CRISPR KI Y537S, the “CRISPR KI (% Inhibition) Y537S cl. 4” value was −342% and the “CRISPR KI (% Inhibition) Y537S cl. 24” value is −421%. In the test on MCF7, the “MCF7 (% Inhibition)” value is given as 72%. The “RBA (estradiol = 100)” value in test [1] was 10 ± 0.4. Besides, the IC50 in test [2] was 0.5 nM.
